Experimental findings from patent publication US6525178B2, “PGC-1, a novel brown fat PPARgamma coactivator” (Dana-Farber Cancer Institute, priority 1997, dated 2003) are described below.

One experiment addresses T1, PPARγ (Mus musculus, UniProt P37238).
T1 construct: made in house; host or cells: receptor: reticulocyte lysate in vitro translation (Promega TNT); GST-PGC-1: E. coli
T1 sequence (P37238 1-505): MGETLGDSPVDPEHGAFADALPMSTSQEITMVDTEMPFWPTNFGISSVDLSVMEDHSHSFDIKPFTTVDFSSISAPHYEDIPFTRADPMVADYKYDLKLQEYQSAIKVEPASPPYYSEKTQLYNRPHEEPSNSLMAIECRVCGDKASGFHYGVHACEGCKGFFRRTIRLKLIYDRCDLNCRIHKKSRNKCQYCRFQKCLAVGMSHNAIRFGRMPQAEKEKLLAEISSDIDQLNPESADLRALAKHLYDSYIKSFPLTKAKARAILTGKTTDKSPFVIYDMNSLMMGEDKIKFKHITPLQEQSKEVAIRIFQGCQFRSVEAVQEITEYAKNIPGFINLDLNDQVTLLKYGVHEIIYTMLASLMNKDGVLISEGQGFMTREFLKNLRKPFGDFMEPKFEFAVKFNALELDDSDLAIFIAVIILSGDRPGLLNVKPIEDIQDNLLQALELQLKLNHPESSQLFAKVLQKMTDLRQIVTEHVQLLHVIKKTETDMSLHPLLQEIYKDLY
T1 sequence (O70343 36-797 partner limits assumed): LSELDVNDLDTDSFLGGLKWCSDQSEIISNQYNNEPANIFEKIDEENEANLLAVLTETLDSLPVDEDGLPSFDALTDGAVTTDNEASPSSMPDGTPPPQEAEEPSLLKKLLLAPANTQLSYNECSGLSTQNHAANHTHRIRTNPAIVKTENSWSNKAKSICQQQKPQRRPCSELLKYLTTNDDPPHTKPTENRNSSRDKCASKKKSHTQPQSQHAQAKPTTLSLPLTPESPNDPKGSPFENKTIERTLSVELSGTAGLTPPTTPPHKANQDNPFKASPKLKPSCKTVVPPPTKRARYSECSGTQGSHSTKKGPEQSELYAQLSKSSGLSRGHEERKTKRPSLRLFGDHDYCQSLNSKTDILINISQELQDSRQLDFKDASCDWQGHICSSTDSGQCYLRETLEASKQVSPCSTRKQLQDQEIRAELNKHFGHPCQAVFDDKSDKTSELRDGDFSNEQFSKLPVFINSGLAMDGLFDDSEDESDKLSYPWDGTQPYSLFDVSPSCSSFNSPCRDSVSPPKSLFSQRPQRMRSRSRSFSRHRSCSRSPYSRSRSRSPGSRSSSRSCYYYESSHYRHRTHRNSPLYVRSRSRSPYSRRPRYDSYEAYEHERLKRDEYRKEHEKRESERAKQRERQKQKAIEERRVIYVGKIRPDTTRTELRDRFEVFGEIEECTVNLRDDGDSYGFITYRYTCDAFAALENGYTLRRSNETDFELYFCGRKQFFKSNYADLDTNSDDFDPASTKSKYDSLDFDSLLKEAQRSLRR
As to the kind of experiment: In vitro binding of GST-PGC-1 to in vitro-translated nuclear receptor. The following applies: GST-PGC-1 (aa 36-797) on beads.

The target in experiment [1] is T2, retinoid-X receptor (RXRα) (Homo sapiens, UniProt P19793).
T2 construct: made in house; host or cells: receptor: reticulocyte lysate in vitro translation (Promega TNT); GST-PGC-1: E. coli
T2 sequence (P19793 1-462): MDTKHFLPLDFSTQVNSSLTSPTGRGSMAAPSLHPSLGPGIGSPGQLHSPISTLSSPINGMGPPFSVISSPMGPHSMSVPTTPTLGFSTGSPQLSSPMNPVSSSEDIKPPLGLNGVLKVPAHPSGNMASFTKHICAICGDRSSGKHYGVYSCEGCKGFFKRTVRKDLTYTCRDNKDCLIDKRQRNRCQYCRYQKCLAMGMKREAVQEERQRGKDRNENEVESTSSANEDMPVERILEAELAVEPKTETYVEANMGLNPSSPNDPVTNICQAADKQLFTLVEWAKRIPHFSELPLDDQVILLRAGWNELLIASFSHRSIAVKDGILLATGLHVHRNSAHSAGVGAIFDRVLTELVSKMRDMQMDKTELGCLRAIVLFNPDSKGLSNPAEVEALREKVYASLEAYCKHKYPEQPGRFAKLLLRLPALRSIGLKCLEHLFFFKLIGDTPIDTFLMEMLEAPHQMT
The description is as above. Particulars: with or without ligand addition. On the procedure: The assays were carried out as follows.

In the next experiment the test system is 3T3-F442A preadipocytes. As to the kind of experiment: Northern analysis of 3T3-F442A cells with retroviral ectopic expression of PGC-1. In kind it is cell-based. An excerpt:
To examine directly the ability of PGC-1 to regulate the genes of adaptive thermogenesis, retroviral vectors have been used to express this protein in white fat precursor cells, and 3T3-F442A preadipocytes were then stimulated to differentiate. Briefly, the PGC-1 viral expression vector (pBabe-PGC-1) was constructed by ligating the BamHI-Xhol fragment from pBluescript-PGC-1 plasmid into BamHI/Sall sites of pBabe-puro. Following drug selection, virally infected 3T3F442A-PGC-1 and […] cells lines were grown to confluence in DMEM with 10% BCS. Differentiation of these cells was initiated by culturing them in DMEM insulin. Cells were refed every 2 days with this medium. Specific cells were grown in DMEM with 10% CCS to confluence. […] After these treatments, total RNA was isolated and analyzed.
To induce UCP-1 expression, 1 μM 8-bromo-cAMP and […] 9-cis-retinoic acid were added to the medium, and total RNA was extracted from the cells 6 hr later. […] The mitochondrial respiratory enzyme cytochrome c-oxidase subunits COX II and IV are encoded in the mitochondrial and nuclear genome, respectively. Both of these mRNAs increase 2- to 3-fold in the cells ectopically expressing PGC-1. Expression of aP2, a white and brown fat cell gene not linked to thermogenesis, and 36B4, a ribosomal protein are shown as a loading control.

The test system of another experiment is 3T3-F442A cells. Put plainly: Southern blot analysis of mitochondrial DNA in 3T3-F442A cells expressing PGC-1. It is filed as cell-based. Particulars: cells expressing PGC-1, COX-II cDNA probe. On the procedure:
Changes in the cellular content of mitochondrial DNA have been used as a simple biochemical assay for mitochondrial proliferation (Martin et al. (1995) Biochem. J. 308:749-752; Klingenspor et al. (1996) Biochem. J. 316:607-613). To address this possibility, Southern blot analysis of mitochondrial DNA was performed. 3T3-F442A Southern blots were carried out by isolating and processing genomic DNA as described in Maniatis et al. (1989) Molecular Cloning: A Laboratory Manual, 2nd Ed. (Cold Spring Harbor, N.Y.: Cold Spring Harbor Laboratory Press)). 3T3-F442A cells were differentiated as described above. Total cellular DNA was isolated and was digested with NCo I. Ten micrograms of DNA were electrophoresed, and the Southern blot was hybridized using COX-II cDNA as a probe for mitrochondrial DNA.
The same blots were also probed with cDNA for 36B4, a ribosomal protein encoded in the nucleus. The blot was then stripped and hybridized with the nuclear gene […].

Method for PPARγ: These fusion proteins were expressed, and purified from E. coli on beads containing approximately 1 μg of protein (either GST, or alone, or fused to PGC-1), 30 μl was resuspended i the binding buffer (20 mM HEPES [pH 7.7], 75 mM KCl, 0.1 mM EDTA, 2.5 mM MgCl2, 0.05% NP40,2 mM DTT, 10% glycerol).
The assays were carried out as follows. […] After electrophoresis, fixation, and enhancement, the radiolabeled proteins were visualized by autoradiography.

Take “PGC-1: mouse PPARγ coactivator 1 protein, SEQ ID NO:2; used as GST fusion or expressed from retroviral vector”: the “binding of PGC-1 to PPARγ” value with PPARγ was “interacted with PPARγ”. Moreover, the “binding of PGC-1 to RXRα” value in experiment [1] was “little or no binding”. The “mRNA for ATP synthetase” value in the experiment with 3T3-F442A preadipocytes (cells expressing PGC-1 vs control) is recorded as “increased”. In addition, in the experiment with 3T3-F442A preadipocytes (cells expressing PGC-1 vs control 3T3-F442A cells, 8-bromo-cAMP and 9-cis-retinoic acid, 6 hr), the “mRNA for UCP-1” value is on record as “significantly induced”. Also, the “mitochondrial DNA content compared to control cells” value in the experiment on 3T3-F442A cells is listed as “twice”.
